{"source": "patent US20250154201A1", "about": "“PEPTIDE BINDING TO MESOTHELIN, AND USE THEREOF” (KYUNGPOOK NATIONAL UNIVERSITY INDUSTRY-ACADEMIC COOPERATION …, priority 2022, published 2025)", "key": {"[1]": {"test": "in vitro", "description": "(§1) Pancreatic cancer cell line AsPC-1 cells (5×10^3 cells/well in 96-well plates) were cultured in 1% serum medium with various concentrations of MSLN-pep peptide that specifically binds to mesothelin, NSSSVDK control peptide (Ctrl-pep), R7-KLA peptide that induces apoptosis, Abraxane, gemcitabine, and PBS at 37° C. for 24 and 48 hours. Afterwards, CCK-8 Kit (Dojindo, Kumamoto, Japan) reagent was treated, and a reaction was carried out at 37° C. for 2 hours to evaluate cytotoxicity.\n(§2) To determine whether there is cytotoxicity when MSLN-pep binds specifically to mesothelin, the peptide was treated to the pancreatic cancer cell line AsPC-1 at concentrations of 0, 25, 50, 100, and 200 μM, and cell viability was checked for 24 and 48hours."}, "[2]": {"test_system": "pancreatic cancer cell line AsPC-1", "test": "in vitro", "description": "as §1, §2"}, "[3]": {"test_system": "PANC-1 and AsPC-1 cell lines", "test": "analysis of migration (24-transwell)", "format": "cell-based, human", "details": "200 μM + 10% FBS; 24 hours", "description": "PANC-1 and AsPC-1 cell lines were cultured using DMEM and RPMI-1640 media with 10% FBS added respectively in the upper chamber of 24-transwell at a concentration of 2×10^4 cells per well. After 24 hours, all the media in the upper chamber of 24-transwells were removed and replaced with DMEM and RPMI-1640 media without addition of 10% FBS to inhibit migratability of cell lines, so as to be in a starvation state. After 24 hours, the experimental group was added with 10% FBS in the lower chamber, and the control was added with 0% FBS in the lower chamber to observe migratability. 3% ACN, 200 μM control peptide (Ctrl-pep), MSLN-pep 25. For 50, 100, and 200 μM groups, the media in the upper chamber of 24-Transwell were removed, each drug was treated by concentration, and 10% FBS was treated in the lower chamber. Each group was cultured at 37° C. for 24 hours, and then the cells were photographed (original magnification, ×100) by concentration of each peptide. Cells were stained with crystal violet (0.1%), and the ImageJ, a computer program, was used for quantitative evaluation.\n(§3) After pancreatic cancer cell lines PANC-1 and AsPC-1 were cultured in 24-transwells, all cells were starved for 24 hours to inhibit cell growth, and then treatment was performed in divided groups of 10% FBS, 0% FBS, 3% ACN+10% FBS, 200 μM NSSSVDK+10% FBS, 25 μM MSLN-pep+10% FBS, 50 μM MSLN-pep+10% FBS, 100 μM MSLN-pep+10% FBS, and 200 μM MSLN-pep+10% FBS."}, "[4]": {"test_system": "pancreatic cancer cell lines PANC-1 and AsPC-1", "test": "internalization of FITC-labeled peptides (confocal microscopy)", "format": "cell-based, human", "details": "25 μM and 50 μM MSLN-pep, 50 uM NSSSVDK; 1 and 2 hours", "description": "To observe the intracellular distribution of the internalized FITC-labeled peptide MSLN-pep, pancreatic cancer cell lines AsPC-1 and PANC-1 cells (2.5×10^5 cell counts) were dispensed on a 4-well chamber slide. After complete adhesion, the cell culture medium was replaced with a fresh medium containing FITC-labeled peptides (25 μM, 50 μM), […], and the cells were washed with PBS 3 times for 3˜5 minutes, followed by fixation (4% paraformaldehyde; PFA) for 5 minutes. Thereafter, washing with PBS was performed. After staining the nucleus with DAPI and mounting on a glass slide with a fading reagent, internalization of FITC-labeled MSLN-pep was observed under confocal microscopy."}, "[5]": {"test_system": "PANC-1 and AsPC-1 cell lines", "test": "analysis of invasion (Matrigel-coated 24-transwell)", "format": "cell-based, human", "details": "200 μM + 10% FBS; 24 hours", "description": "PANC-1 and AsPC-1 cell lines were cultured using DMEM and RPMI-1640 media with 10% FBS added in 100 mm dish each at a concentration of 2×10^6 cells per well. After 24 hours, all media in 100 mm dishes were removed and replaced with DMEM and RPMI-1640 media without addition of 10% FBS to inhibit migratability of cell lines so as to be in a starvation state. After 24 hours, 300 μg/mL of Matrigel was coated on the upper chamber of 24-Transwell. Afterwards, PANC-1 and AsPC-1 cell lines were cultured in the upper chamber at a concentration of 2×10^4 cells in a 100 mm dish, 10% FBS was added to the lower chamber for the experimental group, and 0% FBS was added to the lower chamber for the control group to identify migratability. 3% ACN, 200 μM control peptide (Ctrl-pep), MSLN-pep 25. For 50, 100, and 200 μM groups, each cell line was cultured together in the upper chamber of the 24-Transwell, and 10% FBS was treated in the lower chamber. Each group was cultured at 37° C. for 24 hours, and then the cells were photographed (original magnification, ×100) for each concentration of peptides. Cells were stained with crystal violet (0.1%), and Image J, a computer program, was used for quantitative evaluation.\nas §3"}, "[6]": {"test_system": "AsPC-1 tumor", "test": "tumor homing of peptides in mice", "format": "in vivo, nude mice", "details": "TAMRA-labeled, intravenous, 6 hours circulation; liver, lungs, kidneys", "description": "Pancreatic cancer cell line AsPC-1 cells (1×10^7 cells) were implanted under the skin of nude mice, left until the tumor size reaches about 100 mm^3, and then intravenously injected with 100 μl of 1 mM peptides labeled with a TAMRA fluorescence reagent, followed by circulation for 6 hours. Tumors and organs (liver, lung, and kidney) were separated and treated with paraformaldehyde for fixation and preparation of cryosections. The prepared cryosections were observed under a fluorescence microscope.\nPancreatic cancer cell line AsPC-1 cells (1×10^7 cells) were implanted under\nthe skin of nude mice, left until the tumor size reached about 100 mm^3, and then intravenously injected with MSLN-pep labeled with the TAMRA fluorescence reagent and control peptide (Ctrl-pep), followed by circulation for 6 hours. The tumor and control organs were separated, and cryosections were prepared, followed by observation under a fluorescence microscope."}, "[7]": {"target": "mesothelin (Homo sapiens, UniProt Q13421)", "sequence (Q13421 with tags, fused parts or gaps)": "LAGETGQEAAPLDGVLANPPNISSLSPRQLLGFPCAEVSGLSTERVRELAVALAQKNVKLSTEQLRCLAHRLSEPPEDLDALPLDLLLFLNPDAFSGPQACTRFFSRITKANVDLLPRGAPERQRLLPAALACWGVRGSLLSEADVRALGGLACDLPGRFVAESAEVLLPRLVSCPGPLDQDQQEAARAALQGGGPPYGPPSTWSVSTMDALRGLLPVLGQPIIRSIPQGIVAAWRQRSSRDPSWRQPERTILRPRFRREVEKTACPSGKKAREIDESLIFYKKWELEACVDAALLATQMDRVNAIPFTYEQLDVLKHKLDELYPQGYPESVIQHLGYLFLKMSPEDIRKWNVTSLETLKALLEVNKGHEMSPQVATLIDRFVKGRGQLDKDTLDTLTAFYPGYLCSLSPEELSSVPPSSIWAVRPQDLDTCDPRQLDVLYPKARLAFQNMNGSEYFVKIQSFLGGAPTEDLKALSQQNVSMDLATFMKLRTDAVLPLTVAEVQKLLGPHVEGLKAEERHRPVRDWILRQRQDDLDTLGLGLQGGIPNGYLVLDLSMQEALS", "test": "immunofluorescence binding to HEK-293T cells transiently transfected with mesothelin-GFP plasmid", "format": "cell-based", "set-up": "GFP; host or cells: HEK293T", "details": "10 μM and 25 μM MSLN-pep, 25 μM Ctrl-pep; transfected and untransfected HEK-293T", "description": "HEK293T cells were transiently transfected using Lipofectamine 3000 (Invitrogen) in 6-well plates according to the manufacturer's protocol. Prior to transfection, 2×10^5 cells were cultured in 6-well plates for 24 hours. To transfect one well, 7.5 μl of Lipofectamine 3000 reagent was diluted in 250 μl of Opti-MEM (Invitrogen) reagent, followed by a reaction at room temperature for 5 minutes. 5 μg of mesothelin-expressing plasmid pCMV6-AC-GFP vector DNA was diluted in 250 μl of Opti-MEM (Invitrogen) reagent, followed by a reaction at room temperature for 5 minutes. The mixture of two solutions were then mixed and reacted at room temperature for 10 minutes (a total of 500 μl per well). The old medium of the cells was immediately removed, and a 500 μl of DNA-transfection reagent-mixture was added to the cells before transfer to the incubator. After 24 hours of culture, the medium was again replaced with a pre-warmed growth medium containing serum. Culture was performed for 48 hours, and the newly inserted protein was expressed in the cells.\nTaken together, it was found via immunofluorescence analysis that MSLN-pep specifically binds to mesothelin."}, "[8]": {"target": "T1, human mesothelin (endogenous, on pancreatic cancer cell lines AsPC-1, PANC-1, BxPC-3, MiaPaCa-2) (human, UniProt Q13421 296-598)", "T1 sequence (Q13421 other isoform, or with tags, fused parts or gaps limits assumed)": "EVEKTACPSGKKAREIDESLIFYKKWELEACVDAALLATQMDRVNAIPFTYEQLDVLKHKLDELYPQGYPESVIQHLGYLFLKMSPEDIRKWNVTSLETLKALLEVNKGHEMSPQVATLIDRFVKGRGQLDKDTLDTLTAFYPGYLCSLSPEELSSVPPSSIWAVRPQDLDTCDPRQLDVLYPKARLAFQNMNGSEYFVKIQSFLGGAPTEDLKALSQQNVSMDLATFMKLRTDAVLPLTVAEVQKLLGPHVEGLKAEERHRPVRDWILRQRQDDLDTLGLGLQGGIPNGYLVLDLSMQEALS", "test": "cell-based or functional assay"}, "[9]": {"target": "T1, human mesothelin (endogenous, on …)", "test": "confocal microscopy on PANC-1 and AsPC-1 cells, 1 and 2 hours"}}, "note": "Positions of bridges follow the written chain, without caps; N, C: chain ends. Residues, ends and D or L forms follow the SMILES beside them. No end group written: not given here."}
{"molecule": "CC[C@H](C)[C@@H]1NC(=O)[C@H]([C@@H](C)O)NC(=O)[C@@H](N)CSSC[C@@H](C(=O)N[C@@H](CCCCN)C(=O)N[C@@H](CC(C)C)C(=O)N[C@@H](C)C(=O)N[C@@H](CCCCN)C(=O)N[C@@H](CC(C)C)C(=O)N[C@@H](C)C(=O)N[C@@H](CCCCN)C(=O)N[C@@H](CCCCN)C(=O)N[C@@H](CC(C)C)C(=O)N[C@@H](C)C(=O)N[C@@H](CCCCN)C(=O)N[C@@H](CC(C)C)C(=O)N[C@@H](C)C(=O)N[C@@H](CCCCN)C(=O)O)NC(=O)[C@H]([C@@H](C)O)NC(=O)[C@H](CC(C)C)NC(=O)[C@H](CO)NC(=O)[C@H](Cc2c[nH]c3ccccc23)NC(=O)[C@H](CC(C)C)NC1=O", "note": "[MSLN-pep-KLA] (H-CTILWSLTCKLAKLAKKLAKLAK-OH; disulfide 1-9)", "values": [{"measurement": "IC50", "setting": "[1]", "result": 33, "unit": "µM"}, {"measurement": "cell viability, comparison between groups", "setting": "[2]; 0, 6.25, 12.5, 25, 50, 100, and 200 uM, 24 hours", "result": "second lowest"}]}
{"molecule": "Nc1ccn([C@@H]2O[C@H](CO)[C@@H](O)C2(F)F)c(=O)n1", "note": "[gemcitabine, reference compound]", "values": [{"measurement": "IC50", "setting": "[2]; Homo sapiens, ASPC1, 24 h, read-out: IC50 value (cytotoxicity)", "result": 3.3, "unit": "µg/mL"}, {"measurement": "viability at 10 µg/mL", "setting": "[2]; Homo sapiens, ASPC1, 24 h, read-out: cell viability", "result": "≤ 40", "unit": "%"}]}
{"molecule": "NSSSVDK [Ctrl-pep, reference compound]", "values": [{"measurement": "migratability compared to treatment of 10% FBS", "setting": "[3]", "result": "no difference in the migratability and invasiveness"}, {"measurement": "binding and internalization into cells", "setting": "[4]", "result": "did not bind to PANC-1 and AsPC-1"}, {"measurement": "invasiveness compared to treatment of 10% FBS", "setting": "[5]", "result": "no difference in the migratability and invasiveness"}, {"measurement": "targeting to control organs (fluorescence microscopy of cryosections)", "setting": "[6]", "result": "barely observed"}, {"measurement": "specific binding (immunofluorescence)", "setting": "[7]", "result": "did not have specific binding"}]}
{"molecule": "CTILWSLTCKLAKLAKKLAKLAK (disulfide 1-9)", "note": "[MSLN-pep-KLA (fusion of CTILWSLTC and apoptotic peptide KLAKLAKKLAKLAK)]", "values": [{"measurement": "cell viability of AsPC-1 after 24 hours (CCK-8), IC50", "setting": "[8]", "result": 33, "unit": "µM"}]}
{"molecule": "NSSSVDK (Control peptide)", "note": "[NSSSVDK control peptide (Ctrl-pep)]", "values": [{"measurement": "binding result", "setting": "[9]", "result": "no binding (tested: 50 µM)"}]}
